Data taken from patent US20220228120A1, “Cardiomyocyte Compositions and Use Thereof” (UNIVERSITY HEALTH NETWORK, priority 2019, published 2022).

Assays:
Type in all cases: cell-based, human
[1] = tested on: HEY2, MYCN, ANF, BMP10 expression; assay: RT-qPCR of compact and trabecular markers after 6 days with factors; settings: factors day 10-16
Procedure: (§1) Total RNA from samples was isolated using RNAqueous™-micro Kit including RNase-free DNase treatment (invitrogen). RNA from dissected ventricular and atrial tissue of human fetal hearts was isolated using the TRIzol® method (ThermoFisher) and treated with DNase (Ambion®). Isolated RNA was reverse transcribed into cDNA using oligo (dT) primers and random hexamers and iScript™ Reverse Transcriptase (ThermoFisher). QRT-PCR was performed on an EP Real-Plex MasterCycler® (Eppendorf®) using QuantiFast® SYBR Green PCR kit (QIAGEN). The copy number of each gene relative to the house keeping gene TBP.
For these studies, we used our previously published protocol to generate cardiomyocytes (Lee, supra). […] Using this timeframe as an indication of the proliferative stage of ventricular development, between days 10 and 16 of differentiation, we added the small molecule GSK-3 inhibitor CHIR-99021 (“CHIR”; a WNT pathway agonist), or IGF2, or both, to the day 10 cell population (FIG. 1D). As a control, we added neuregulin 1 (NRG) to the cultures as it promotes the development of the trabecular myocardium in the developing heart (see, e.g., Del Monte-Nieto et al., Nature (2018) 557(7705):439-45; and Odiete et al., Circ Res. (2012) 111(10):1376-85). The cells were cultured with these factors for 6 days. The cells were then harvested, counted, and analyzed for expression of compact and trabecular genes by RT-qPCR. […] The addition of both factors promoted the greatest expansion in cell number, resulting in a 2-fold increase. […] It had little effect on HEY2, which was already expressed at reasonable levels within the population. IGF2 signaling had no effect on the expression of these genes. Addition of NRG reduced the expression of HEY2 and increased the expression of ANF, indicative of specification of a trabecular fate.

[2] = tested on: hPSC-derived ventricular cardiomyocytes; assay: HEY2/ANF immunostaining of day 16 ventricular population; settings: day 16 population
Procedure: The EBs were dissociated as described above and the cells were plated onto 24 well culture dishes pre-coated with Matrigel™ (25% v/v, BD PharMingen™). Cells were cultured for 2-3 days and were fixed with 4% PFA in PBS for 15 min at room temperature. Cells were permeabilized and blocked with PBS containing 5% donkey serum, 0.1% TritonX™. The following antibodies were used for staining: mouse anti-cardiac isoform of cTNT (ThermoFisher Scientific, 1:200), rabbit anti-human HEY2 (Proteintech, 1:100), mouse anti-human ANF (Abcam, 1:100), rabbit anti-human cTNT (Abcam, 1:200), or rabbit anti-human CD90 (Abcam, 1:200). For detecting unconjugated primary antibodies, the following secondary antibodies were used: donkey anti-mouse IgG-Alexa Fluor™ 488 (ThermoFisher, 1:500), donkey anti-rabbit IgG-Alexa Fluor™ 555 (ThermoFisher, 1:500), donkey anti-rabbit IgG-Alexa488 (ThermoFisher, 1:500), donkey anti-mouse IgG-Alexa Fluor™ 555 (ThermoFisher, 1:500). Detailed antibody information is described in the Key Resources Table. Cells were stained with primary antibodies in staining buffer consisting of PBS with 0.1% TritonX, and 5% donkey serum overnight at 4° C. The stained cells were washed with PBS. […] Stained cells were analyzed using an EVOS Microscope (ThermoFisher) and Zeiss LSM700 confocal microscope (Zeiss).

[3] = tested on: CD36^+SIRPA^+ compact cardiomyocytes; assay: Flow cytometric analyses of CD36 and SIRPA expression
Procedure: The EBs were dissociated by incubation in Collagenase type 2 (0.5 mg/ml, Worthington) in HANKs buffer overnight at room temperature followed by TrypLE™ for 5 mins at 37° C. The following antibodies were used for staining: anti-SIRPa-PeCy7 (Biolegend, 1:1000), anti-CD36-FITC (BD PharMingen™, 1:200), anti-LDLR-BV421 (BD PharMingen™, 1:100), anti-cardiac isoform of cTNT (ThermoFisher Scientific, 1:2000), or anti-myosin light chain 2 (Abcam,1:1000). For unconjugated primary antibodies, the following secondary antibodies were used for detection: goat anti-mouse IgG-APC (BD PharMingen™, 1:500), or donkey anti-rabbit IgG-PE (Jackson ImmunoResearch, 1:500). Detailed antibody information is described in the Key Resources Table. […] Stained cells were analyzed using the LSR II Flow cytometer (BD PharMingen™). Data were analyzed using FlowJo™ software (Tree Star).
To evaluate the capacity of the day 18 compact cardiomyocytes to undergo FAO, we analyzed them for expression of the fatty acid transporter CD36, which is essential for transporting fatty acid into cells (FIG. 2B). Given that most mature cardiomyocytes in the human heart express CD36, flow cytometric analyses of this transporter would provide rapid quantitative measure of the maturation status of these cells.

[4] = tested on: compact ventricular populations; assay: cTNT and Ki67 flow cytometry after 2 days XAV (day 18)
Procedure: The EBs were dissociated by incubation in Collagenase type 2 (0.5 mg/ml, Worthington) in HANKs buffer overnight at room temperature followed by TrypLE™ for 5 mins at 37° C. The following antibodies were used for staining: anti-SIRPa-PeCy7 (Biolegend, 1:1000), anti-CD36-FITC (BD PharMingen™, 1:200), anti-LDLR-BV421 (BD PharMingen™, 1:100), anti-cardiac isoform of cTNT (ThermoFisher Scientific, 1:2000), or anti-myosin light chain 2 (Abcam,1:1000). For unconjugated primary antibodies, the following secondary antibodies were used for detection: goat anti-mouse IgG-APC (BD PharMingen™, 1:500), or donkey anti-rabbit IgG-PE (Jackson ImmunoResearch, 1:500). Detailed antibody information is described in the Key Resources Table. For cell-surface marker analyses, cells were stained for 30 min at 4° C. in FACS buffer consisting of PBS with 5% fetal calf serum (FCS) (Wisent) and 0.02% sodium azide. For intracellular staining, cells were fixed for 20 mins at 4° C. with 4% PFA in PBS followed by permeabilization using 90% methanol for 20 mins at 4° C. Cells were washed with PBS containing 0.5% BSA (Sigma) and stained with unconjugated primary antibodies in FACS buffer overnight at 4° C. Stained cells were washed with PBS with 0.5% BSA and stained with secondary antibodies in FACS buffer for 30 mins at 4° C. Stained cells were analyzed using the LSR II Flow cytometer (BD PharMingen™). Data were analyzed using FlowJo™ software (Tree Star).
The EBs were dissociated as described above. The following antibodies were used for staining: mouse anti-Ki67 (DAKO, 1:100) and rabbit anti-cardiac isoform of cTNT (ThermoFisher Scientific, 1:500). The following secondary antibodies were used for detection: donkey anti-mouse IgG-APC (BD Pharmigen™, 1:500), or donkey anti-rabbit IgG-PE (Jackson ImmunoResearch, 1:500). Detailed antibody information is described in the Key Resources Table. […] Stained cells were analyzed using the LSR II Flow cytometer (BD PharMingen™). Data were analyzed using FlowJo™ software (Tree Star). […]

FAO-related genes = assay: RT-qPCR of FAO-related, mitochondrial and maturation genes in day 32 compact cardiomyocytes
Procedure: as §1

[5] = tested on: hPSC-derived ventricular cardiomyocytes; assay: Cardiomyocyte proliferation/expansion, factors added day 10 to day 16; settings: CHIR 1 μM or IGF2 25 ng/ml
Procedure: The EBs were dissociated as described above. The following antibodies were used for staining: mouse anti-Ki67 (DAKO, 1:100) and rabbit anti-cardiac isoform of cTNT (ThermoFisher Scientific, 1:500). The following secondary antibodies were used for detection: donkey anti-mouse IgG-APC (BD Pharmigen™, 1:500), or donkey anti-rabbit IgG-PE (Jackson ImmunoResearch, 1:500). Detailed antibody information is described in the Key Resources Table. Cells were fixed for 20 mins at 4 C with 4% PFA in PBS followed by permeabilization using 90% methanol for 20 mins at 4° C. Cells were washed with PBS containing 0.5% BSA (Sigma) and stained with unconjugated primary antibodies in FACS buffer overnight at 4° C. Stained cells were washed with PBS with 0.5% BSA and stained with secondary antibodies in FACS buffer for 30 mins at 4° C. Stained cells were analyzed using the LSR II Flow cytometer (BD PharMingen™). Data were analyzed using FlowJo™ software (Tree Star). At day 5, the EBs were transferred to StemPro™-34 with rhVEGF (5 ng/ml) for another 5 days and then to DMEM high glucose (Life Technologies) with 0.5 mg/mL human serum albumin (Sigma), ascorbic acid, transferrin, insulin (10 ng/ml, Sigma), CHIR (1 μM, Bio-Techne), and IGF2 (25 ng/ml, Bio-Techne) from day 10 to day 16. […] The cells were then harvested, counted, and analyzed for expression of compact and trabecular genes by RT-qPCR. […]

Compound: neuregulin 1 [NRG]
- expression of ANF [1]: increased
- expression of HEY2 [1]: reduced
- ANF+ cells by immunostaining [2]: presence
- HEY+ compact cells by immunostaining [2]: lack

Compound: CC(C)(Sc1ccc(CCN(CCCCC2CCCCC2)C(=O)NC2CCCCC2)cc1)C(=O)O [GW7647]
- size of CD36+ population detected at day 32 ([3]; 1 μM added to day 18 CMs): significant increase

Compound: O=c1[nH]c(-c2ccc(C(F)(F)F)cc2)nc2c1CSCC2 [XAV, 2-(4-(trifluoromethyl)phenyl)-7,8-dihydro-5H-thiopyrano[4,3-d]pyrimidin-4-ol]
- proportion of Ki67^+ cells in the population ([4]; XAV following the CHIR/IGF2-induced proliferative stage): significantly reduced
- proportion of the non-cardiomyocytes ([4]; XAV for 2 days after CHIR/IGF2): reduction

Compound: N[C@@H](Cc1cc(I)c(Oc2ccc(O)c(I)c2)c(I)c1)C(=O)O [thyroid hormone (T3), triiodothyronine]
- effect on CD36 expression among other pathways tested ([3]; only observed in the presence of PPARα signaling): largest effect

Compound: CCCCCCCCCCCCCCCC(=O)O [palmitate]
- expression of mitochondrial/electron transport chain genes ATP5A1, COX7A1, CKMT2 (FAO-related genes): no effect
- expression of FAO pathway components CD36, FABP3, CPT1B, MLYCD (FAO-related genes; vs untreated populations): no effect
- level of ACC2 (FAO-related genes; vs untreated populations): no effect

Compound: Cc1c[nH]c(-c2cnc(NCCNc3ccc(C#N)cn3)nc2-c2ccc(Cl)cc2Cl)n1 [CHIR, 6-((2-((4-(2,4-Dichlorophenyl)-5-(4-methyl-1H-imidazol-2-yl)pyrimidin-2-yl)amino)ethyl)amino)nicotinonitrile]
- expression of ANF [1]: decrease
- expression of BMP10 [1]: decrease
- expression of HEY2 [1]: little effect
- expression of MYCN [1]: significant increase
- expression of the fatty acid transporter CD36 [1]: reduced
- expression of the glucose transporter GLUT1 [1]: increased
- proportion of cTNT^+ cells in the population ([4]; XAV(−) vs. ventricular control, day 18): reduction
- proportion of Ki67^−cTNT^+ cardiomyocytes detected at day 16 [5]: significant increase

Compound: insulin-like growth factor 2 [IGF2]
- expression of ANF [1]: no effect
- expression of BMP10 [1]: no effect
- expression of HEY2 [1]: no effect
- expression of MYCN [1]: no effect
- proportion of Ki67^−cTNT^+ cardiomyocytes detected at day 16 [5]: significant increase
